From patent US10597388B2, “Pyridazinone herbicides” (FMC CORPORATION, priority 2014, dated 2020)

Legend:
Assay type in all cases: in vivo
[1] = system: barnyardgrass (Echinochloa crus-galli); test: Test C greenhouse herbicide test, pre- and postemergence
Text: Seeds of plant species selected from blackgrass (Alopecurus myosuroides), ryegrass, Italian (Italian ryegrass, Lolium multiflorum), wheat (winter wheat, Triticum aestivum), galium (catchweed bedstraw, Galium aparine), corn (Zea mays), large crabgrass, large (large crabgrass, Digitaria sanguinalis), foxtail, giant (giant foxtail, Setaria faberii), johnsongrass (Sorghum halepense), lambsquarters (Chenopodium album), morningglory (Ipomoea coccinea), nutsedge, yellow (yellow nutsedge, Cyperus esculentus), pigweed (Amaranthus retroflexus), ragweed (common ragweed, Ambrosia elatior), soybean (Glycine max), barnyardgrass (Echinochloa crus-galli), oilseed rape (Brassica napus), waterhemp (common waterhemp, Amaranthus rudis), and velvetleaf (Abutilon theophrasti) were planted into a blend of loam soil and sand and treated preemergence with test chemicals formulated in a non-phytotoxic solvent mixture which included a surfactant.
At the same time, plants selected from these crop and weed species and also chickweed (common chickweed, Stellaria media), kochia (Kochia scoparia), and oat, wild (wild oat, Avena fatua), were planted in pots containing Redi-Earth® planting medium (Scotts Company, 14111 Scottslawn Road, Marysville, Ohio 43041) comprising spaghnum peat moss, vermiculite, wetting agent and starter nutrients and treated with postemergence applications of test chemicals formulated in the same manner. Plants ranged in height from 2 to 18 cm (1- to 4-leaf stage) for postemergence treatments. Treated plants and controls were maintained in a greenhouse for 13 to 15 d, after which time all species were compared to controls and visually evaluated. Plant response ratings, summarized in Table C, are based on a scale of 0 to 100 where 0 is no effect and 100 is complete control. A dash (-) response means no test result.

[2] = system: galium (catchweed bedstraw, Galium aparine); test: Test A greenhouse herbicide test, postemergence; details: for Plant response rating, Galium: 125 g ai/ha; for Galium plant response rating: 500 g ai/ha, 0 to 100 scale, 0 is no effect, 100 is complete control
Outline: (§1)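 Pot-grown plants (loam soil/sand blend), 2–10 cm tall at the one- to two-leaf stage, received postemergence sprays of formulated test chemical. After about 10 d in the greenhouse, injury was rated visually against untreated controls on a 0 (no effect) to 100 (complete control) scale.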

[3] = system: blackgrass (Alopecurus myosuroides); test: Test A greenhouse herbicide test, postemergence; details: for Plant response rating, Blackgrass: 125 g ai/ha; for Blackgrass plant response rating: 500 g ai/ha, 0 to 100 scale, 0 is no effect, 100 is complete control
Outline: as §1

kochia (Kochia scoparia) = test: Test A greenhouse herbicide test, pre- and postemergence
Outline: (§2)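 Seeds in loam–sand blend received a preemergence directed soil spray; plants at 2–10 cm, one- to two-leaf stage, received postemergence sprays. Compounds in a non-phytotoxic solvent with surfactant. After about 10 d in a greenhouse, injury rated visually versus untreated controls on a 0–100 scale (100 = complete control).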

[4] = system: ryegrass, Italian (Italian ryegrass, Lolium multiflorum); test: as above
Outline: as §2

[5] = system: barnyardgrass (Echinochloa crus-galli); test: as above
Outline: as §2

[6] = system: ragweed (common ragweed, Ambrosia elatior); test: as above
Outline: as §2

corn (Zea mays) = test: as above; details: Postemergence; for Plant response rating, Corn: 125 g ai/ha; for Corn plant response rating: 500 g ai/ha, 0 to 100 scale, 0 is no effect, 100 is complete control
Outline: as §2

[7] = system: wheat (Triticum aestivum); test: as above; details: Postemergence; for Plant response rating, Wheat: 125 g ai/ha, 0 to 100 scale where 0 is no effect and 100 is complete control; for Wheat plant response rating: 500 g ai/ha, 0 to 100 scale, 0 is no effect, 100 is complete control
Outline: as §2

[8] = system: foxtail, giant (giant foxtail, Setaria faberii); test: as above
Outline: as §2

[9] = system: pigweed (Amaranthus retroflexus); test: as above
Outline: as §2

[10] = Postemergence, 31 g ai/ha, 0 to 100 scale (0 no effect, 100 complete control)
[11] = Postemergence, 125 g ai/ha, scale 0 to 100, 0 is no effect, 100 is complete control
[12] = Postemergence, 250 g ai/ha, scale 0 to 100, 0 no effect, 100 complete control, 13 to 15 d
[13] = Preemergence, 31 g ai/ha, scale 0 to 100, 0 is no effect, 100 is complete control
[14] = Preemergence, 62 g ai/ha, scale 0 to 100, 0 is no effect, 100 is complete control
[15] = Preemergence, 125 g ai/ha, scale 0 to 100, 0 is no effect, 100 is complete control
[16] = Preemergence, 250 g ai/ha, scale 0 to 100 (0 no effect, 100 complete control)
[17] = postemergence, 62 g ai/ha, scale 0 to 100, 0 no effect, 100 complete control
[18] = visual rating after approx. 10 d, 0 to 100 scale (0 no effect, 100 complete control)
[19] = Postemergence, 125 g ai/ha, visual rating after approx. 10 d, 0 to 100 scale (0 no effect, 100 complete control)
[20] = Postemergence, 500 g ai/ha, 0 to 100 scale, 0 is no effect, 100 is complete control
[21] = Preemergence, 125 g ai/ha, 0 to 100 scale where 0 is no effect and 100 is complete control
[22] = Preemergence, 500 g ai/ha, 0 to 100 scale, 0 no effect, 100 complete control
[23] = Postemergence, 125 g ai/ha, 0 to 100 scale where 0 is no effect and 100 is complete control
[24] = 0 to 100 scale where 0 is no effect and 100 is complete control
[25] = Preemergence, 500 g ai/ha, 0 to 100 scale where 0 is no effect and 100 is complete control

CC(=O)Oc1c(C)nn(C)c(=O)c1-c1c(C)sc2c(C)cc(C)cc12 [Compound 27]
Barnyardgrass plant response rating [1, 10]: 15
Plant response rating, Barnyardgrass [1, 11]: 25
Plant response rating, Barnyardgrass [1, 12]: 50
Plant response rating, Barnyardgrass [1, 13]: 55
Plant response rating, Barnyardgrass [1, 14]: 80
Plant response rating, Barnyardgrass [1, 15]: 90
Barnyardgrass plant response rating [1, 16]: 90
Barnyardgrass plant response rating [1, 17]: 20
Plant response rating, Galium [2, 18]: 100
Galium plant response rating [2]: 100
Plant response rating, Blackgrass [3, 18]: 90
Blackgrass plant response rating [3]: 90
Plant response rating, Kochia (kochia (Kochia scoparia); [19]): 70
Kochia plant response rating (kochia (Kochia scoparia); [20]): 90
Kochia plant response rating (kochia (Kochia scoparia); [21]): 40
Plant response rating, Kochia (kochia (Kochia scoparia); [22]): 90
Plant response rating, Ryegrass, Italian [4, 23]: 100
Ryegrass, Italian plant response rating [4, 20]: 100
Ryegrass, Italian plant response rating [4, 21]: 100
Plant response rating, Ryegrass, Italian [4, 22]: 100
Plant response rating, Barnyardgrass [5, 19]: 90
Barnyardgrass plant response rating [5, 20]: 90
Barnyardgrass plant response rating [5, 21]: 90
Plant response rating, Barnyardgrass [5, 22]: 100
Plant response rating, Ragweed [6, 19]: 100
Ragweed plant response rating [6, 20]: 100
Ragweed plant response rating [6, 21]: 90
Plant response rating, Ragweed [6, 22]: 100
Plant response rating, Corn (corn (Zea mays); [18]): 0
Corn plant response rating (corn (Zea mays)): 20
Plant response rating, Wheat [7]: 0
Wheat plant response rating [7]: 0
Plant response rating, Foxtail, Giant [8, 19]: 90
Foxtail, Giant plant response rating [8, 20]: 90
Foxtail, Giant plant response rating [8, 21]: 90
Plant response rating, Foxtail, Giant [8, 22]: 100
Plant response rating, Pigweed [9, 19]: 90
Pigweed plant response rating [9, 20]: 100
Pigweed plant response rating [9, 21]: 100
Plant response rating, Pigweed [9, 22]: 100

CCOC(=O)Oc1c(C)nn(C)c(=O)c1-c1c(C)ccc2ccccc12 [Compound 73]
Barnyardgrass plant response rating [1, 10]: 25
Plant response rating, Barnyardgrass [1, 11]: 55
Plant response rating, Barnyardgrass [1, 12]: 60
Plant response rating, Barnyardgrass [1, 13]: 10
Plant response rating, Barnyardgrass [1, 14]: 25
Plant response rating, Barnyardgrass [1, 15]: 70
Barnyardgrass plant response rating [1, 16]: 85
Barnyardgrass plant response rating [1, 17]: 40
Plant response rating, Galium [2, 24]: 100
Galium plant response rating [2]: 100
Plant response rating, Blackgrass [3, 24]: 90
Blackgrass plant response rating [3]: 90
Plant response rating, Kochia (kochia (Kochia scoparia); [23]): 90
Kochia plant response rating (kochia (Kochia scoparia); [20]): 100
Kochia plant response rating (kochia (Kochia scoparia); [21]): 50
Plant response rating, Kochia (kochia (Kochia scoparia); [25]): 100
Plant response rating, Ryegrass, Italian [4, 23]: 100
Ryegrass, Italian plant response rating [4, 20]: 100
Ryegrass, Italian plant response rating [4, 21]: 100
Plant response rating, Ryegrass, Italian [4, 25]: 100
Plant response rating, Barnyardgrass [5, 23]: 40
Barnyardgrass plant response rating [5, 20]: 90
Barnyardgrass plant response rating [5, 21]: 40
Plant response rating, Barnyardgrass [5, 22]: 100
Plant response rating, Ragweed [6, 23]: 90
Ragweed plant response rating [6, 20]: 100
Ragweed plant response rating [6, 21]: 90
Plant response rating, Ragweed [6, 25]: 90
Plant response rating, Corn (corn (Zea mays); [24]): 20
Corn plant response rating (corn (Zea mays)): 60
Plant response rating, Wheat [7]: 40
Wheat plant response rating [7]: 90
Plant response rating, Foxtail, Giant [8, 23]: 90
Foxtail, Giant plant response rating [8, 20]: 100
Foxtail, Giant plant response rating [8, 21]: 90
Plant response rating, Foxtail, Giant [8, 25]: 100
Plant response rating, Pigweed [9, 23]: 100
Pigweed plant response rating [9, 20]: 100
Pigweed plant response rating [9, 21]: 100
Plant response rating, Pigweed [9, 25]: 100
